Columns and labels:
Assay type in all cases: in vivo
[1] = tested on: Housefly [Musca domestica]; assay: Housefly insecticidal test; details: μg per 25 female flies; mortality after 48 hours
How it was run: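 Dry-film exposure of 25 female houseflies per cage, 48 h; LC50 as μg per 25 flies.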

[2] = tested on: Tobacco Budworm [Heliothis virescens (Fabricius)] larvae; assay: Tobacco budworm contact test; details: second-instar larvae, percent in solution, 5 days
Description: The compounds in Tables 1 and 2 above were tested for insecticidal activity using the following testing procedures. LC50 values, based on the results of these tests and calculated according to dosage-mortality curves, are expressed in Table 3.
Tobacco Budworm [Heliothis virescens (Fabricius)]:
(a) Contact: Test compounds were diluted in a 50-50 acetone-water solution. Cotton (Gossypium sp.) cotyledons were immersed in the test solutions for 2-3 seconds and placed on a wire screen to dry. The dried leaves were placed in petri dishes containing a moistened piece of filter paper and infested with 5 second-instar tobacco budworm larvae. The dishes were placed in a high humidity chamber for 5 days, and percent mortality of the larvae recorded. Test concentrations ranged from 0.1% downward. The LC-50 values are expressed below in Table 3 under the heading "TBW-C" in terms of percent of the test compound in the solution.

[3] = tested on: Tobacco Budworm [Heliothis virescens (Fabricius)] eggs; assay: Tobacco budworm egg test; details: 2-day old eggs, percent in solution
How it was run: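 Mortality of dipped eggs served as read-out, recorded after untreated controls hatched and began feeding. Treatments used acetone solutions from 0.1% downward, with eggs incubated at 78° F; LC50 is expressed as percent of compound in the solution.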

[4] = tested on: Cabbage Looper [Trichoplusia ni (Hubner)]; assay: Cabbage looper insecticidal test; details: second-instar larvae, percent in solution; 3-5 days
How it was run: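 Steps: dilute compound in 50-50 acetone-water from 0.1% downward; immerse cotyledon pieces 2-3 s and dry; place in humid petri dishes with five second-instar larvae; record mortality at 3-5 days. Dosage-mortality curves yield LC50 as percent in solution.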

[5] = tested on: Aster Leafhopper [Macrosteles fascifrens (Stal)]; assay: Aster leafhopper insecticidal test; details: adults/nymphs, percent in solution; 48 hours
How it was run: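 LC50 values, given as percent of test compound in the dip solution, were derived from dosage-mortality curves over concentrations from 0.05% downward. Mortality was counted 48 hours after ten leafhopper adults/nymphs were enclosed on treated seedlings. The seedlings were oats, about 10 cm tall, briefly dipped in 50-50 acetone-water.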

[6] = tested on: Maize weevil [Sitophilus Zeamais (Motschulsky)]; assay: Maize weevil insecticidal test; details: adult weevils, percent in solution; 48 hours
How it was run: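 LC50, in percent of compound in solution, was derived from dosage-mortality curves after 48 h at about 25 °C. Ten adult weevils per container fed on four corn seeds briefly immersed in acetone:water (50:50) solutions of up to 0.01% and dried.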

Structure (SMILES)	LC50, HF [1]	LC50, TBW, C (TBW-C) [2]	LC50, TBW, E (TBW-E) [3]	LC50, CL [4]	LC50, LH [5]	LC50, MW [6]
CC1(C(=Nc2ccc(Cl)cc2)OCc2cccc(Oc3ccccc3)c2)CC1 [Compound 5]	21 µg	0.008%	0.05%	0.005%	> 0.05%	> 0.01%
CC(C)(C)C(=Nc1ccc(Cl)cc1)OCc1cccc(Oc2ccccc2)c1 [Compound 30]	> 100 µg	0.01%	> 0.1%	0.003%	> 0.05%	> 0.01%
CC(C)C(=Nc1ccc(Cl)c(Cl)c1)OCc1cccc(Oc2ccc(F)cc2)c1 [Compound 37]	21 µg	0.0005%	0.014%	0.0004%	0.002%	0.009%
CC(C)C(=Nc1c(F)c(F)c(F)c(F)c1F)OCc1cccc(Oc2ccccc2)c1 [Compound 51]	25 µg	0.0025%	0.067%	0.001%	0.001%	
CC(C)C(=Nc1ccc(F)c(F)c1)OCc1cccc(Oc2ccc(F)cc2)c1 [Compound 60]	8 µg	0.0009%	0.017%	0.001%	0.002%	0.0075%
Cc1ccc(N=C(OCc2cccc(Oc3ccccc3)c2)C(C)C)cc1F [Compound 75]	5 µg	0.0075%	0.01%	0.0025%	0.0008%	
CC(C)C(=Nc1ccc(F)c(C(F)(F)F)c1)OCc1cccc(Oc2ccc(F)cc2)c1 [Compound 120]	14 µg	0.0025%	0.04%	0.00015%	0.0003%	> 0.01%
CCOc1ccc(N=C(OCc2cccc(Oc3ccccc3)c2)C(Cl)Cl)cc1 [Compound 138]	19 µg	0.015%	0.08%	0.005%	> 0.05%	> 0.01%
COc1ccccc1N=C(OCc1cccc(Oc2ccccc2)c1)C(C)C [Compound 145]	> 100 µg	0.05%	> 0.1%	0.05%	> 0.05%	
CC(C)C(=Nc1cccc(Cl)c1)OCc1cccc(Oc2ccc(F)cc2)c1 [Compound 194]	10 µg	0.0017%	0.04%	0.0005%	0.0005%	> 0.01%
CC(C)C(=Nc1ccc(F)c(Cl)c1)OCc1cccc(Oc2ccc(C#N)cc2)c1 [Compound 196]	17 µg	0.001%	> 0.1%	0.0006%	> 0.05%	> 0.01%
CC(C)C(=Nc1cc(F)cc(F)c1)OCc1cccc(Oc2ccc(F)cc2)c1 [Compound 199]	8 µg	0.003%	> 0.1%	0.0006%		> 0.01%
CC(C)C(=Nc1cccc(C(F)(F)F)c1)OCc1cccc(Oc2ccc(F)cc2)c1 [Compound 202]	18 µg	0.0007%	> 0.1%	0.00024%	0.0003%	> 0.01%
CC(C)(C)C(=Nc1ccc(F)c(Cl)c1)OCc1cccc(Oc2ccc(F)cc2)c1 [Compound 204]	> 100 µg	0.004%	> 0.1%	0.0023%		> 0.01%
CC(C)C(=Nc1ccc(F)cc1F)OCc1cccc(Oc2ccc(F)cc2)c1 [Compound 209]	17 µg	0.005%	0.1%	0.0007%	0.001%	> 0.01%
CCC(C)C(=Nc1ccc(F)c(Cl)c1)OCc1cccc(Oc2ccc(F)cc2)c1 (stereo not shown) [Compound 210]	35 µg	0.0015%	0.045%	0.00028%		> 0.01%
CC(C)C(=Nc1ccc2c(c1)OC(C)(C)O2)OCc1cccc(Oc2ccc(F)cc2)c1 [Compound 219]	50 µg	0.004%	0.027%	0.00025%		> 0.01%
CC(C)C(=Nc1ccc(Br)cc1)OCc1cccc(Oc2ccc(F)cc2)c1 [Compound 226]	16 µg	0.001%	0.1%	0.0005%	0.002%	0.009%
CC(C)C(=Nc1ccc(I)cc1)OCc1cccc(Oc2ccc(F)cc2)c1 [Compound 234]	38 µg	0.0013%	0.09%	0.00045%	0.003%	> 0.01%
CC(C)C(=Nc1ccc(F)c(Cl)c1)OCc1cccc(Oc2ccc(Br)cc2)c1 [Compound 238]	25 µg	0.0004%	0.05%	0.0002%	> 0.05%	> 0.01%
CC(C)C(=Nc1ccc(F)c(Br)c1)OCc1cccc(Oc2ccc(F)cc2)c1 [Compound 253]	10 µg	0.0005%	> 0.1%	0.00013%	0.003%	> 0.01%
CC(C)C(=Nc1ccc(F)c(C(F)(F)F)c1)OCc1ccc(F)c(Oc2ccc(Cl)cc2)c1 [Compound 297]	23 µg	0.00075%	0.025%	0.00027%	0.0001%	0.0071%
C=C(C)C(=Nc1ccc(C(F)(F)F)cc1)OCc1ccc(F)c(Oc2ccc(Cl)cc2)c1 [Compound 432]	< 100 µg	< 0.1%	0.032%	0.0012%		> 0.01%
CC(C)C(=Nc1ccc(F)c(Cl)c1)OCc1cccc(Oc2ccccc2)n1 [Compound 462]	7 µg	0.0025%	0.04%	0.001%	0.001%	> 0.05%
C#CCc1c(F)c(F)c(COC(=Nc2ccc(F)c(Cl)c2)C(C)C)c(F)c1F [Compound 520]	5.5 µg	0.00075%	> 0.1%	> 0.1%	0.0003%	0.0042%
